Common to all, as to format: cell-based
In one experiment the target is T1, EDC3 Y475 (Homo sapiens, UniProt Q96F86).
T1 sequence (Q96F86 1-508): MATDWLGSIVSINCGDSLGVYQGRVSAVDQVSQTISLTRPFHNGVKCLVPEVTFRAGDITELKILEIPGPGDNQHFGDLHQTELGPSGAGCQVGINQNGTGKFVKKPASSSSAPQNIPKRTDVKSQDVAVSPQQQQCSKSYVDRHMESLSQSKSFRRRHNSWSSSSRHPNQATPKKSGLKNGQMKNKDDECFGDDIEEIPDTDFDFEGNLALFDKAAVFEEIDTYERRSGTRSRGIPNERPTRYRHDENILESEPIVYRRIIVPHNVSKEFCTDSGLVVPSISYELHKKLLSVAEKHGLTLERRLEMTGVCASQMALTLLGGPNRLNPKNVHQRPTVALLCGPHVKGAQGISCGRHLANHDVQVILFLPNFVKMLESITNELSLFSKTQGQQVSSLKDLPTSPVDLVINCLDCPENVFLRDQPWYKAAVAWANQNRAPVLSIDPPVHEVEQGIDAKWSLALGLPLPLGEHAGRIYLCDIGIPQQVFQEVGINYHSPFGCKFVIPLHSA
As to the kind of experiment: Competitive ABPP SILAC LC-MS/MS chemical proteomics, EDC3 Y475. The settings on record: glucose-deprived HEK293T cells, 25 μM, 2 h. As for the experimental part: (§1) Preparation of SILAC proteomes for LC-MS/MS analysis. SILAC cell proteomes were fractionated to collect the supernatant and normalized to 2.3 mg/mL in PBS. ‘Heavy’ and ‘light’ proteomes were aliquoted (427 μL) and probe-modified proteins were conjugated to desthiobiotin-PEG-3-azide using copper-catalyze azide-alkyne cycloaddition, trypsinized into peptides using Trypsin/Lys-C Mix (Catalog No. V5071; Promega Corporation, Madison, Wisconsin, United States of America), enriched using PIERCE™ Avidin Agarose brand beads (Catalog No. 20219; Thermo Fisher Scientific Inc., Waltham, Massachusetts. United States of America), and prepared for nano-electrospray ionization-LC-MS/MS analysis as previously described in Hahm et al., 2020.
(§2) Data Analysis—Chemical Proteomics. Identification and analysis of peptides and proteins using LC-MS was accomplished using bioinformatics software and quality control parameter protocols as previously described in Hahm et al., 2020.
We performed quantitative liquid-chromatography tandem mass spectrometry (LC-MS/MS) chemical proteomic studies to identify the target protein and binding site(s) of SuTEx fragments with RNP granule modulating activity. […] SILAC light and heavy cells (HEK293T and HeLa) were treated with experimental conditions used for phenotypic screening including the SuTEx ligand pretreatment (25 μM, 2 h) followed by PB (glucose-deprivation, 15 min) and SG induction (75 μM [COMPOUND LEFT OUT], 30 min). Afterwards, cells were lysed, soluble proteomes treated with HHS-465 SuTEx probe (100 μM, 1 h), a global Tyr/Lys-reactive probe used previously for RNP granule investigations (Ciancone et al., 2022), and samples processed to probe-modified peptides for LC-MS/MS analysis as previously reported (Huang et al., 2021), shown in FIG. 10.
(§3) We detected ~8,700 probe-modified sites (Tyr and Lys) in our aggregate HeLa and HEK293T chemical proteomic analyses. […]

A further experiment concerns the target T2, HNRPK Y72 (Homo sapiens, UniProt P61978).
T2 construct: liganded site Y72
As to the kind of experiment: Competitive ABPP SILAC LC-MS/MS chemical proteomics, HNRPK Y72. The method, then:
as §1, §2
We performed quantitative liquid-chromatography tandem mass spectrometry (LC-MS/MS) chemical proteomic studies to identify the target protein and binding site(s) of SuTEx fragments with RNP granule modulating activity. […]
as §3

The subject of experiment [1] is G3BP1 Y40E-rescued G3BP KO cells. As to the kind of experiment: SG formation in G3BP KO U20S cells rescued with G3BP1 Y40E. The settings on record: 25 μM, 2 h. As for the experimental part:
(§4) G3BP KO and rescue studies. U20S G3BP1/2 double knockout (G3BP KO) cell-line was a kind gift from the C. Brangwynne lab (Princeton University, Princeton, New Jersey, United States of America) and generated as previously described in Kedersha et al., 2016. G3BP KO cells were seeded at 9.0×10^4 in a 24-well plate with 12-mm glass coverslips. Next day, the cells were transfected with […] vectors with 1 μg/mL tetracycline and LIPOFECTAMINE™ 3000 brand transfection reagent according to the manufacturer's protocol (Thermo Fisher Scientific). 20 hours post-transfection, the cells were treated with 25 μM SuTEx probes for 2 hours in DMEM medium without FBS. The cells were then treated with 75 μM NaAsO2 for 30 minutes and fixed with 3% paraformaldehyde in PBS for 15 minutes at RT and washed with PBS twice. The same protocols for IF of HeLa cells and quantification of G3BP1-positive SGs described above were followed thereafter.
(§5) To determine whether the cell biological effects mediated by HHS-166 were Y40-dependent, we expressed recombinant G3BP1 WT or Y40 mutant in previously established G3BP1/2 double knockout U20S (G3BP KO) cells (Kedersha et al., 2016; Sanders et al., 2020) and evaluated the resulting effects on SG response to [COMPOUND LEFT OUT]. […]

Experiment [2] relates to G3BP1 Y40F-expressing G3BP KO cells. As to the kind of experiment: SG formation in G3BP KO U20S cells rescued with G3BP1 Y40F. The settings on record: 25 μM, 2 h. As for the experimental part:
as §4, §5

Entries after “also recorded” stand apart in the source; their conditions may differ. Some results are limits rather than exact numbers.

With `COc1ccc(S(=O)(=O)n2cc(CS(C)(=O)=O)nn2)cc1` [AHL-030, 1-((4-Methoxyphenyl)sulfonyl)-4-((methylsulfonyl)methyl)-1H-1,2,3-triazole], the “liganding of EDC3 Y475 (in words)” value at EDC3 Y475 is reported as “localized AHL-030 site of binding to Y475; also recorded: liganded site (Y475)”. Further, at EDC3 Y475 (HHS-465 100 μM, DMSO (light)/ligand (heavy)), the “SILAC ratio (SR), EDC3 Y475” value was over 2.

For `COc1ccc(S(=O)(=O)n2cc(C3CCCCC3)nn2)cc1` [HHS-166, 4-Cyclohexyl-1-((4-methoxyphenyl)sulfonyl)-111-1,2,3-triazole], the “liganding of HNRPK Y72 (in words)” value on HNRPK Y72 was “not”. In addition, the “effect on SG formation (in words)” value in experiment [1] is “insensitive to HHS-166 treatment and lost and not Y40E-”; in experiment [2] it was “lost”.

The record behind these values is patent US20260294874A1, “COMPOSITIONS COMPRISING MODULATORS OF RIBONUCLEOPROTEIN GRANULE FORMATION AND DISSOLUTION AND METHODS OF USE THEREOF” (University of Virginia Patent Foundation, priority 2023, published 2026).
